Results published in paper PMC6397271 (Scientific Reports, 2019).
≈ marks a conversion by molar mass, not a printed value. Where “and” joins values, the source holds several entries; their conditions need not be identical. Equal entries are not always repeated. Where two headings read alike, the source gives them in different places.

Key:
[1] = test system: S. aureus MRSA 12673; test: microbe, parasite or virus in culture; assay type: cell-based, Staphylococcus aureus
Method in brief: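 MICs were measured by microbroth dilution against MRSA in cation-adjusted Mueller-Hinton broth and enterococci in Brain Heart Infusion broth. Viability was read with resazurin dye.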

[2] = test system: S. aureus MRSA N315; test: microbe, parasite or virus in culture; assay type: cell-based, Staphylococcus aureus
Method in brief: (§1)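 Broth microdilution MIC, resazurin read-out, n=3. Media: cation-adjusted MH broth for MRSA (N315 reference; 6347 clinical h-VISA), BHI broth for enterococci. Growth aerobic, 37 °C, 24 h; inocula titrated by CFU/ml plating.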

[3] = test system: S. aureus MRSA hetero-VISA 6347; test: microbe, parasite or virus in culture; assay type: cell-based, Staphylococcus aureus
Method in brief: as §1

[4] = Brain concentration by LC/MS after iv administration; assay type: in vivo, BALB/c male mice; settings: iv tail vein, 60 mg/kg, 2 hours after administration, brain homogenate supernatant, UHPLC-ESI/MS SIM; Mean ± SD, ten mice; 60 mg/kg
Description: In vivo experiments were performed on BALB/c male mice weighing between 20 and 30 g (the mouse model is widely used for estimation of drug BBB penetration). The animals (obtained from TAZD-CBU) were kept in a 12-hour day and night cycle at room temperature (20–22 °C), humidity 55–56% and fed with a standard diet and water ad libitum for at least 1 week before the experiment. Body temperature and weight were recorded on a regular daily schedule. It is confirmed that all procedures were carried out according to the guidelines outlined by the European Community Council Directive 2010/63/EEC, and they were approved by the local Ethical Committee Resolution 26/2014 (Bydgoszcz, Poland).
The experiments in this section also involved the mouse model described above. […] Similarly to what was stated previously, the mice were sacrificed 2 hours after the administration of the compounds. Their brains were removed immediately from the cranium and weighed. Next, they were homogenized mechanically in the ice and frozen at −80 °C.
Each homogenized mouse brain was centrifuged at 15 000 × g for 10 min. The supernatant was diluted with deionised water (Millipore), filtered (PTFE 0.22 μm filter) and analyzed by UHPLC-ESI/MS with the use of Shimadzu Nexera X2 UHPCL chromatograph and Shimadzu LCMS-2020 mass detector. […]

[5] = Staphylococcus aureus, MRSA, 24 h, microbroth dilution, 96-well, resazurin, 37 °C, 24 h, mean ± SD, at least three independent experiments in triplicates, read-out: MIC
[6] = Staphylococcus aureus, MRSA, raw MIC, first block, test a, repetition 1, read-out: MIC1a
[7] = Staphylococcus aureus, MRSA, raw MIC, first block, test a, repetition 2, read-out: MIC2a
[8] = Staphylococcus aureus, MRSA, raw MIC, first block, test a, repetition 3, read-out: MIC3a
[9] = Staphylococcus aureus, MRSA, raw MIC, first block, test b, repetition 1, read-out: MIC1b
[10] = Staphylococcus aureus, MRSA, raw MIC, first block, test b, repetition 2, read-out: MIC2b
[11] = Staphylococcus aureus, MRSA, raw MIC, first block, test b, repetition 3, read-out: MIC3b
[12] = Staphylococcus aureus, MRSA, raw MIC, test a, repetition 1, read-out: MIC1a
[13] = Staphylococcus aureus, MRSA, raw MIC, test a, repetition 2, read-out: MIC2a
[14] = Staphylococcus aureus, MRSA, raw MIC, test a, repetition 3, read-out: MIC3a
[15] = Staphylococcus aureus, MRSA, raw MIC, test b, repetition 1, read-out: MIC1b
[16] = Staphylococcus aureus, MRSA, raw MIC, test b, repetition 2, read-out: MIC2b
[17] = Staphylococcus aureus, MRSA, raw MIC, test b, repetition 3, read-out: MIC3b
[18] = microbroth dilution, 96-well, resazurin, 37 °C, 24 h, mean ± SD, at least three independent experiments in triplicates, listed as Van-HCl
[19] = same test as μM value, mean ± SD

CN[C@H](CC(C)C)C(=O)N[C@H]1C(=O)N[C@@H](CC(N)=O)C(=O)N[C@H]2C(=O)N[C@H]3C(=O)N[C@H](C(=O)N[C@H](C(=O)O)c4cc(O)cc(O)c4-c4cc3ccc4O)[C@H](O)c3ccc(c(Cl)c3)Oc3cc2cc(c3O[C@@H]2O[C@H](CO)[C@@H](O)[C@H](O)[C@H]2O[C@H]2C[C@](C)(N)[C@H](O)[C@H](C)O2)Oc2ccc(cc2Cl)[C@H]1O [Van, vancomycin, reference compound]
MIC [1, 5]: 4.1 µM (≈ 5.94 µg/mL)
MIC [1, 6]: 4.07 µM (≈ 5.9 µg/mL)
MIC [1, 7]: 2.03 µM (≈ 2.94 µg/mL)
MIC [1, 8]: 4.07 µM (≈ 5.9 µg/mL)
MIC [1, 9]: 4.07 µM (≈ 5.9 µg/mL)
MIC [1, 10]: 2.03 µM (≈ 2.94 µg/mL)
MIC [1, 11]: 4.07 µM (≈ 5.9 µg/mL)
MIC [1, 12]: 6.05 µM (≈ 8.77 µg/mL)
MIC [1, 13]: 3.03 µM (≈ 4.39 µg/mL)
MIC [1, 14]: 6.05 µM (≈ 8.77 µg/mL)
MIC [1, 15]: 6.05 µM (≈ 8.77 µg/mL)
MIC [1, 16]: 3.03 µM (≈ 4.39 µg/mL)
MIC [1, 17]: 6.05 µM (≈ 8.77 µg/mL)
MIC [1, 18]: 4.1 ± 1.1 µM (≈ 5.94 µg/mL)
MIC in (μg/ml) [1, 19]: 6.1 ± 1.6 µg/mL (≈ 4.21 µM)
MIC [2, 5]: 2 µM (≈ 2.9 µg/mL)
MIC [2, 6]: 2 µM (≈ 2.9 µg/mL)
MIC [2, 7]: 1 µM (≈ 1.45 µg/mL)
MIC [2, 8]: 2 µM (≈ 2.9 µg/mL)
MIC [2, 9]: 2 µM (≈ 2.9 µg/mL)
MIC [2, 10]: 2 µM (≈ 2.9 µg/mL)
MIC [2, 11]: 1 µM (≈ 1.45 µg/mL)
MIC [2, 12]: 2.97 µM (≈ 4.3 µg/mL)
MIC [2, 13]: 1.49 µM (≈ 2.16 µg/mL)
MIC [2, 14]: 2.97 µM (≈ 4.3 µg/mL)
MIC [2, 15]: 2.97 µM (≈ 4.3 µg/mL)
MIC [2, 16]: 2.97 µM (≈ 4.3 µg/mL)
MIC [2, 17]: 1.49 µM (≈ 2.16 µg/mL)
MIC [2, 18]: 2.0 ± 0.5 µM (≈ 2.9 µg/mL)
MIC ([2]; microbroth dilution, 96-well, resazurin, 37 °C, 24 h, mean ± SD, at least three independent experiments in triplicates, read-out: MIC): 2 µM (≈ 2.9 µg/mL)
MIC in (μg/ml) [2, 19]: 3.0 ± 0.7 µg/mL (≈ 2.07 µM)
MIC ([3]; Staphylococcus aureus, 24 h, microbroth dilution, 96-well, resazurin, 37 °C, 24 h, mean ± SD, at least three independent experiments in triplicates, read-out: MIC): 4.1 µM (≈ 5.94 µg/mL)
MIC ([3]; Staphylococcus aureus, raw MIC, first block, test a, repetition 1, read-out: MIC1a): 4.07 µM (≈ 5.9 µg/mL)
MIC ([3]; Staphylococcus aureus, raw MIC, first block, test a, repetition 2, read-out: MIC2a): 4.07 µM (≈ 5.9 µg/mL)
MIC ([3]; Staphylococcus aureus, raw MIC, first block, test a, repetition 3, read-out: MIC3a): 4.07 µM (≈ 5.9 µg/mL)
MIC ([3]; Staphylococcus aureus, raw MIC, first block, test b, repetition 1, read-out: MIC1b): 2.03 µM (≈ 2.94 µg/mL)
MIC ([3]; Staphylococcus aureus, raw MIC, first block, test b, repetition 2, read-out: MIC2b): 4.07 µM (≈ 5.9 µg/mL)
MIC ([3]; Staphylococcus aureus, raw MIC, first block, test b, repetition 3, read-out: MIC3b): 2.03 µM (≈ 2.94 µg/mL)
MIC ([3]; Staphylococcus aureus, raw MIC, test a, repetition 1, read-out: MIC1a): 6.05 µM (≈ 8.77 µg/mL)
MIC ([3]; Staphylococcus aureus, raw MIC, test a, repetition 2, read-out: MIC2a): 6.05 µM (≈ 8.77 µg/mL)
MIC ([3]; Staphylococcus aureus, raw MIC, test a, repetition 3, read-out: MIC3a): 6.05 µM (≈ 8.77 µg/mL)
MIC ([3]; Staphylococcus aureus, raw MIC, test b, repetition 1, read-out: MIC1b): 3.03 µM (≈ 4.39 µg/mL)
MIC ([3]; Staphylococcus aureus, raw MIC, test b, repetition 2, read-out: MIC2b): 6.05 µM (≈ 8.77 µg/mL)
MIC ([3]; Staphylococcus aureus, raw MIC, test b, repetition 3, read-out: MIC3b): 3.03 µM (≈ 4.39 µg/mL)
MIC [3, 18]: 4.1 ± 1.1 µM (≈ 5.94 µg/mL)
MIC in (μg/ml) [3, 19]: 6.1 ± 1.6 µg/mL (≈ 4.21 µM)
Brain concentrations of Van [4]: 11 nM and 11 ± 2 nM
